Source: patent US20260285850A1, “SUBSTITUTED OXAZOLIDINONES AND IMIDAZOLINONES AS HERBICIDES” (FMC CORPORATION, priority 2023, published 2026)

Experiments:
Assay type in all cases: in vivo
[1] = test system: barnyardgrass (Echinochloa crusgalli); assay: Test B flooded paddy test, visual plant response rating 0-100; settings: 250 g ai/ha, Flood, applied to paddy water, evaluated after 13 days
In short: (§1)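 Each species was raised to two leaves before flooding to a 3 cm depth and dosing the water with compound. Injury was assessed by eye after 13 days under greenhouse conditions.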

[2] = test system: sedge, umbrella (small-flower umbrella sedge, Cyperus difformis); assay: as above; settings: 250 g ai/ha, Flood, applied to paddy water, evaluated after 13 days
In short: as §1

rice (Oryza sativa) = assay: as above; settings: 250 g ai/ha, Flood, applied to paddy water, evaluated after 13 days
In short: as §1

[3] = test system: ducksalad (Heteranthera limosa); assay: as above; settings: 250 g ai/ha, Flood, applied to paddy water, evaluated after 13 days
In short: as §1

[4] = test system: wheat (Triticum aestivum); assay: Test A postemergence application, visual injury rating 0-100; settings: Postemergence, 10 days, 0 is no effect, 100 is complete control
In short: (§2)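 Directed preemergence spray onto seeded soil or postemergence spray onto 2-10 cm plants (loam plus sand); compound carried in surfactant-containing non-phytotoxic solvent. Injury rated by eye after 10 d greenhouse growth; 0 = no effect, 100 = complete control.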

soybean (Glycine max) [5] = assay: as above; settings: Postemergence, 10 days, 0 is no effect, 100 is complete control
In short: as §2

[6] = test system: galium (catchweed bedstraw, Galium aparine); assay: as above; settings: Postemergence, 10 days, 0 is no effect, 100 is complete control
In short: as §2

[7] = test system: palmer (palmer amaranth, palmer pigweed, Amaranthus palmeri); assay: as above; settings: Postemergence, 10 days, 0 is no effect, 100 is complete control
In short: as §2

[8] = test system: blackgrass (Alopecurus myosuroides); assay: as above; settings: Postemergence, 10 days, 0 is no effect, 100 is complete control
In short: as §2

[9] = test system: foxtail, giant (giant foxtail, Setaria faberi); assay: as above; settings: 10 days, 0 is no effect, 100 is complete control
In short: as §2

corn (Zea mays) [10] = assay: as above; settings: Postemergence, 10 days, 0 is no effect, 100 is complete control
In short: as §2

[11] = test system: horseweed (Erigeron canadensis); assay: as above; settings: Postemergence, 10 days, 0 is no effect, 100 is complete control
In short: as §2

[12] = test system: barnyardgrass (Echinochloa crus-galli); assay: as above; settings: Postemergence, 10 days, 0 is no effect, 100 is complete control
In short: as §2

[13] = test system: ryegrass, Italian (italian ryegrass, Lolium multiflorum); assay: as above; settings: Postemergence, 10 days, 0 is no effect, 100 is complete control
In short: as §2

[14] = test system: oat, wild (wild oat, Avena fatua); assay: as above; settings: Postemergence, 10 days, 0 is no effect, 100 is complete control
In short: as §2

[15] = test system: ragweed (common ragweed, Ambrosia artemisiifolia); assay: as above; settings: Postemergence, 10 days, 0 is no effect, 100 is complete control
In short: as §2

kochia (Bassia scoparia) [16] = assay: as above; settings: Postemergence, 10 days, 0 is no effect, 100 is complete control
In short: as §2

[17] = test system: wheat (Triticum aestivum); assay: Test A preemergence soil spray, visual injury rating 0-100; settings: 10 days, 0 = no effect, 100 = complete control
In short: as §2

soybean (Glycine max) [18] = assay: as above; settings: 10 days, 0 = no effect, 100 = complete control
In short: as §2

[19] = test system: palmer (palmer amaranth, palmer pigweed, Amaranthus palmeri); assay: as above; settings: 10 days, 0 = no effect, 100 = complete control
In short: as §2

[20] = test system: blackgrass (Alopecurus myosuroides); assay: as above; settings: 10 days, 0 = no effect, 100 = complete control
In short: as §2

[21] = test system: foxtail, giant (giant foxtail, Setaria faberi); assay: as above; settings: 10 days, 0 = no effect, 100 = complete control
In short: as §2

corn (Zea mays) [22] = assay: as above; settings: 10 days, 0 = no effect, 100 = complete control
In short: as §2

[23] = test system: barnyardgrass (Echinochloa crus-galli); assay: as above; settings: 10 days, 0 = no effect, 100 = complete control
In short: as §2

[24] = test system: ryegrass, Italian (italian ryegrass, Lolium multiflorum); assay: as above; settings: 10 days, 0 = no effect, 100 = complete control
In short: as §2

[25] = test system: oat, wild (wild oat, Avena fatua); assay: as above; settings: 10 days, 0 = no effect, 100 = complete control
In short: as §2

[26] = test system: ragweed (common ragweed, Ambrosia artemisiifolia); assay: as above; settings: 10 days, 0 = no effect, 100 = complete control
In short: as §2

kochia (Bassia scoparia) [27] = assay: as above; settings: 10 days, 0 = no effect, 100 = complete control
In short: as §2

Compound: CC1(C(=O)N[C@H]2C=C[C@@H](C(=O)O)C2)CN(c2cc(F)cc(F)c2)C(=O)O1 (stereo partly drawn) [Compound 51, (1S,4R)-4-[[[3-(3,5-Difluorophenyl)-5-methyl-2-oxo-5-oxazolidinyl]carbonyl]amino]-2-cyclopentene-1-carboxylic acid]
- Plant response rating, Barnyardgrass (0 to 100 scale, 0 is no effect and 100 is complete control) [1]: 75
- Plant response rating, Sedge, Umbrella (0 to 100 scale, 0 is no effect and 100 is complete control) [2]: 60
- Plant response rating, Rice (0 to 100 scale, 0 is no effect and 100 is complete control) (rice (Oryza sativa)): 60
- Plant response rating, Ducksalad (0 to 100 scale, 0 is no effect and 100 is complete control) [3]: 60
- Wheat plant response rating (0 to 100 scale) ([4]; 125 g ai/ha): 90
- Wheat plant response rating (0 to 100 scale) ([4]; 500 g ai/ha): 90
- Soybean plant response rating (0 to 100 scale) (soybean (Glycine max) [5]; 125 g ai/ha): 70
- Soybean plant response rating (0 to 100 scale) (soybean (Glycine max) [5]; 500 g ai/ha): 100
- Galium plant response rating (0 to 100 scale) ([6]; 125 g ai/ha): 70
- Galium plant response rating (0 to 100 scale) ([6]; 500 g ai/ha): 70
- Amaranth, Palmer / Pigweed, Palmer plant response rating (0 to 100 scale) ([7]; 125 g ai/ha): 90
- Amaranth, Palmer / Pigweed, Palmer plant response rating (0 to 100 scale) ([7]; 500 g ai/ha): 90
- Blackgrass plant response rating (0 to 100 scale) ([8]; 125 g ai/ha): 90
- Blackgrass plant response rating (0 to 100 scale) ([8]; 500 g ai/ha): 100
- Foxtail, Giant plant response rating (0 to 100 scale) ([9]; 125 g ai/ha): 90
- Foxtail, Giant plant response rating (0 to 100 scale) ([9]; 500 g ai/ha): 90
- Corn plant response rating (0 to 100 scale) (corn (Zea mays) [10]; 125 g ai/ha): 90
- Corn plant response rating (0 to 100 scale) (corn (Zea mays) [10]; 500 g ai/ha): 90
- Horseweed plant response rating (0 to 100 scale) ([11]; 125 g ai/ha): 80
- Horseweed plant response rating (0 to 100 scale) ([11]; 500 g ai/ha): 100
- Barnyardgrass plant response rating (0 to 100 scale) ([12]; 125 g ai/ha): 100
- Barnyardgrass plant response rating (0 to 100 scale) ([12]; 500 g ai/ha): 100
- Ryegrass, Italian plant response rating (0 to 100 scale) ([13]; 125 g ai/ha): 70
- Ryegrass, Italian plant response rating (0 to 100 scale) ([13]; 500 g ai/ha): 70
- Oat, Wild plant response rating (0 to 100 scale) ([14]; 125 g ai/ha): 90
- Oat, Wild plant response rating (0 to 100 scale) ([14]; 500 g ai/ha): 90
- Ragweed plant response rating (0 to 100 scale) ([15]; 125 g ai/ha): 60
- Ragweed plant response rating (0 to 100 scale) ([15]; 500 g ai/ha): 70
- Kochia plant response rating (0 to 100 scale) (kochia (Bassia scoparia) [16]; 125 g ai/ha): 80
- Kochia plant response rating (0 to 100 scale) (kochia (Bassia scoparia) [16]; 500 g ai/ha): 80
- Wheat plant response rating (0 to 100 scale) ([17]; 125 g ai/ha): 100
- Wheat plant response rating (0 to 100 scale) ([17]; 500 g ai/ha): 100
- Soybean plant response rating (0 to 100 scale) (soybean (Glycine max) [18]; 125 g ai/ha): 70
- Soybean plant response rating (0 to 100 scale) (soybean (Glycine max) [18]; 500 g ai/ha): 100
- Amaranth, Palmer plant response rating (0 to 100 scale) ([19]; 125 g ai/ha): 90
- Amaranth, Palmer plant response rating (0 to 100 scale) ([19]; 500 g ai/ha): 100
- Blackgrass plant response rating (0 to 100 scale) ([20]; 125 g ai/ha): 80
- Blackgrass plant response rating (0 to 100 scale) ([20]; 500 g ai/ha): 90
- Foxtail, Giant plant response rating (0 to 100 scale) ([21]; 125 g ai/ha): 90
- Foxtail, Giant plant response rating (0 to 100 scale) ([21]; 500 g ai/ha): 100
- Corn plant response rating (0 to 100 scale) (corn (Zea mays) [22]; 125 g ai/ha): 90
- Corn plant response rating (0 to 100 scale) (corn (Zea mays) [22]; 500 g ai/ha): 90
- Barnyardgrass plant response rating (0 to 100 scale) ([23]; 125 g ai/ha): 100
- Barnyardgrass plant response rating (0 to 100 scale) ([23]; 500 g ai/ha): 100
- Ryegrass, Italian plant response rating (0 to 100 scale) ([24]; 125 g ai/ha): 90
- Ryegrass, Italian plant response rating (0 to 100 scale) ([24]; 500 g ai/ha): 100
- Oat, Wild plant response rating (0 to 100 scale) ([25]; 125 g ai/ha): 90
- Oat, Wild plant response rating (0 to 100 scale) ([25]; 500 g ai/ha): 90
- Ragweed plant response rating (0 to 100 scale) ([26]; 125 g ai/ha): 70
- Ragweed plant response rating (0 to 100 scale) ([26]; 500 g ai/ha): 80
- Kochia plant response rating (0 to 100 scale) (kochia (Bassia scoparia) [27]; 125 g ai/ha): 90
- Kochia plant response rating (0 to 100 scale) (kochia (Bassia scoparia) [27]; 500 g ai/ha): 100
